Measurements as given in PubChem BioAssay (NCI).
“And” between values parts separate entries of the source, which are not always exact repeats. Equal values may be shown once.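 A five-concentration, 48-hour dose response in 96-well plates underlies each endpoint, interpolated linearly between surrounding concentrations. GI50 marks 50% less growth. TGI marks complete inhibition of growth.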

Assays:
Assay in all cases: NCI tumour cell line growth inhibition, 48 h
LOX IMVI melanoma = tested on: LOX IMVI melanoma
K-562 leukemia = tested on: K-562 leukemia
EKVX NSCLC = tested on: EKVX NSCLC
UO-31 renal = tested on: UO-31 renal
786-0 renal = tested on: 786-0 renal
SF-295 CNS = tested on: SF-295 CNS
A498 renal = tested on: A498 renal
MALME-3M melanoma = tested on: MALME-3M melanoma
HT29 colon = tested on: HT29 colon
SF-539 CNS = tested on: SF-539 CNS

Compound	GI50 (LOX IMVI melanoma) [µM]	TGI (LOX IMVI melanoma) [µM]	GI50 (K-562 leukemia) [µM]	TGI (K-562 leukemia) [µM]	GI50 (EKVX NSCLC) [µM]	TGI (EKVX NSCLC) [µM]	GI50 (UO-31 renal)	TGI (UO-31 renal) [µM]	GI50 (786-0 renal) [µM]	TGI (786-0 renal) [µM]	GI50 (SF-295 CNS)	TGI (SF-295 CNS) [µM]	GI50 (A498 renal) [µM]	TGI (A498 renal) [µM]	GI50 (MALME-3M melanoma) [µM]	TGI (MALME-3M melanoma) [µM]	GI50 (HT29 colon) [µM]	TGI (HT29 colon) [µM]	GI50 (SF-539 CNS)	TGI (SF-539 CNS) [µM]
Fc1ccc(-c2nnc3sc(-c4cccc(Cl)c4)nn23)cc1Cl	> 100	> 100	> 100	> 100	> 100	> 100	> 100 µM	> 100	> 100	> 100	> 100 µM	> 100	> 100	> 100	> 100	> 100	> 100	> 100	> 100 µM	> 100
Cc1c(C(=O)CC(=O)C(=O)Nc2cccc(C(F)(F)F)c2)[n+](=O)c2ccccc2n1[O-]		12.7		14.1		20.3		30.2		21.5		23.4		35.8		13.3		17.8		8.58
Cc1cc(S(=O)(=O)NC#N)c(S/C(=N\Nc2ccc([N+](=O)[O-])cc2)c2ccccc2)cc1Cl	15.4	28.8	15.2	42.9	17.2	34.7	15.5 µM	36.7	33.8	> 100	15.9 µM	34			16.5	39.6				
CCc1nc2ccc(Cc3ccc(C(=O)NO)cc3)cc2c(=O)n1CCc1ccccc1	1.16	2.5	1.02	> 100	1.21	3.14			1.71	3.41	1.02 µM	2.6	0.364	1.93	0.586	2.1	0.919	4.5	1.46 µM	3.65
O=C(c1ccc(NCN2C(=O)CCC2=O)cc1)c1ccc(NCN2C(=O)CCC2=O)cc1		> 100		> 100		> 100		> 100		> 100		> 100				> 100		> 100		> 100
CC(=O)O[C@@H]1CC(C)C2CC2C2=C(C(O)OC2O)[C@@H]1C(C)CCC=C(C)C (stereo partly specified)		40.9		66.9		> 100		47.6		40.3				> 100		67		35.5		34.2
CCOC(=O)C(Cc1c[nH]c2cc([N+](=O)[O-])ccc12)(NC(C)=O)C(=O)OCC	> 766	> 1000			59	> 614	43.4 µM and 188 µM	> 1000	175	> 754	57.9 µM and 56.9 µM	> 478	55.3	203	171	> 1000	> 1000	> 1000	68.3 µM and 84.2 µM	330
O=C1NC2(O)c3ccccc3C(=O)C2(O)N1c1ccccc1 (stereo unspecified)		> 100		> 100		> 100		> 100		> 100		> 100				> 100		> 100		> 100
CN(C)CCCn1c2c3ccccc3ccc2c2oc(=O)c3ccccc3c21		13.3				60.7		15.1		5.54		7.17		28.6		29.8		14.7		7.82
Cc1ccc2c(=O)[nH]sc2c1		32.9		47.2		30.6				15.4		> 100		> 100		45.6		32.3		26.9
N#CC(C#N)=CN1CCN(C(=O)c2ccccc2)C1=S	> 100	> 100	79.5	> 100	3.48	11.4	20.4 µM	47.3	38.9	> 100	46.2 µM	> 100			10.2	64.1	42	> 100		
CC(=O)OC[C@@H]1[C@H]2CC(=O)O[C@H]2C[C@H]1OC(C)=O		> 100				> 100		> 100		> 100		> 100		> 100		> 100		> 100		> 100
N#CC1(c2nc3ccccc3o2)C(=O)C(=O)N(c2ccc(Cl)c(Cl)c2)C(=O)C1=O		> 100		> 100		> 100		> 100		> 100		> 100				> 100		> 100		
CC[O-].CC[O-].O=Nc1ccc2cc([O-])ccc2c1.O=Nc1ccc2cc([O-])ccc2c1.[Ti+4]	1.66	4.14	2.85	> 100	3.77	11.8	1.78 µM	3.63	1.61	3.05	1.8 µM	10.5	9.01	27.3	1.69	3.06			1.82 µM	3.28
